In the experiment the test system is Candida albicans. As to the kind of experiment: Geometric mean minimum inhibitory concentration (GMMIC) for whole cell activity against Candida albicans. It counts as functional.

`NC(=O)OC[C@H](O)[C@@H](O)[C@H](N)C(=O)N[C@H](C(=O)O)[C@H]1O[C@@H](n2cc(C(=O)O)c(=O)[nH]c2=O)[C@H](O)[C@@H]1O` came in with a GMMIC of 153 µg/mL.
The same measure for `CSCCC(N)C(=O)N[C@H](C(=O)O)[C@H]1O[C@@H](n2ccc(=O)[nH]c2=O)[C@H](O)[C@@H]1O` (some centres not stated): 49 µg/mL; for `CC[C@@H](O)C(N)C(=O)N[C@H](C(=O)O)[C@H]1O[C@@H](n2ccc(=O)[nH]c2=O)[C@H](O)[C@@H]1O` (some centres not stated): greater than 2048 µg/mL.
The same measure for `CC[C@H](C)C(N)C(=O)N[C@H](C(=O)O)[C@H]1O[C@@H](n2ccc(=O)[nH]c2=O)[C@H](O)[C@@H]1O` (some centres not stated): greater than 2048 µg/mL; for `CC[C@@H](C)C(N)C(=O)N[C@H](C(=O)O)[C@H]1O[C@@H](n2ccc(=O)[nH]c2=O)[C@H](O)[C@@H]1O` (some centres not stated): 44 µg/mL.
In the case of `N[C@@H](CCc1ccc(O)cc1)C(=O)N[C@H](C(=O)O)[C@H]1O[C@@H](n2ccc(=O)[nH]c2=O)[C@H](O)[C@@H]1O` it was 128 µg/mL.
For `N[C@H](C(=O)N[C@H](C(=O)O)[C@H]1O[C@@H](n2ccc(=O)[nH]c2=O)[C@H](O)[C@@H]1O)c1csc(O)c1`, the GMMIC is greater than 2048 µg/mL.
`N[C@@H](Cc1c[nH]c2ccccc12)C(=O)N[C@H](C(=O)O)[C@H]1O[C@@H](n2ccc(=O)[nH]c2=O)[C@H](O)[C@@H]1O` had a GMMIC of 2048 µg/mL.
`N[C@@H](Cc1c[nH]c2ccc(F)cc12)C(=O)N[C@H](C(=O)O)[C@H]1O[C@@H](n2ccc(=O)[nH]c2=O)[C@H](O)[C@@H]1O` displayed a GMMIC greater than 2048 µg/mL.
In the case of `COc1ccc2[nH]cc(C[C@H](N)C(=O)N[C@H](C(=O)O)[C@H]3O[C@@H](n4ccc(=O)[nH]c4=O)[C@H](O)[C@@H]3O)c2c1` it was greater than 2048 µg/mL.
The same measure for `N[C@@H](CCc1ccc(O)cn1)C(=O)N[C@H](C(=O)O)[C@H]1O[C@@H](n2ccc(=O)[nH]c2=O)[C@H](O)[C@@H]1O`: 118 µg/mL.
In the case of `NCC(=O)N[C@H](C(=O)O)[C@H]1O[C@@H](n2ccc(=O)[nH]c2=O)[C@H](O)[C@@H]1O` it was greater than 2048 µg/mL; in that of `C[C@H](Cc1ccc(O)cn1)[C@H](N)C(=O)N[C@H](C(=O)O)[C@H]1O[C@@H](n2ccc(=O)[nH]c2=O)[C@H](O)[C@@H]1O`, 9.3 µg/mL.
Turning to `CC(C)[C@H](N)C(=O)N[C@H](C(=O)O)[C@H]1O[C@@H](n2ccc(=O)[nH]c2=O)[C@H](O)[C@@H]1O`, the GMMIC worked out at 87 µg/mL.
In the case of `C[C@H](Cc1ccc(O)cc1)[C@H](N)C(=O)N[C@H](C(=O)O)[C@H]1O[C@@H](n2ccc(=O)[nH]c2=O)[C@H](O)[C@@H]1O` it was 35 µg/mL.
In the case of `C[C@@H](Cc1ccc(O)cn1)[C@H](N)C(=O)N[C@H](C(=O)O)[C@H]1O[C@@H](n2ccc(=O)[nH]c2=O)[C@H](O)[C@@H]1O` it was 51 µg/mL; in that of `C=C[C@@H](C)C(N)C(=O)N[C@H](C(=O)O)[C@H]1O[C@@H](n2ccc(=O)[nH]c2=O)[C@H](O)[C@@H]1O` (some centres not stated), 406 µg/mL; in that of `N[C@@H](Cc1c[nH]c2ccc(O)cc12)C(=O)N[C@H](C(=O)O)[C@H]1O[C@@H](n2ccc(=O)[nH]c2=O)[C@H](O)[C@@H]1O`, 27 µg/mL.
In the case of `NC(Cc1c[nH]c2ccc(O)cc12)C(=O)NC[C@H]1OC(n2ccc(=O)[nH]c2=O)[C@H](O)[C@@H]1O` (some centres not stated) it was greater than 2048 µg/mL.
`NC(Cc1c[nH]c2ccc(O)cc12)C(=O)N[C@H](CO)[C@H]1OC(n2ccc(=O)[nH]c2=O)[C@H](O)[C@@H]1O` (some centres not stated) yielded a GMMIC greater than 2048 µg/mL.
The same measure for `N[C@H](C(=O)O)[C@H]1OC(n2ccc(=O)[nH]c2=O)[C@H](O)[C@@H]1O` (some centres not stated): greater than 2048 µg/mL.
The same measure for `C[C@@H]([C@H](N)C(=O)N[C@H](C(=O)O)[C@H]1O[C@@H](n2ccc(=O)[nH]c2=O)[C@H](O)[C@@H]1O)[C@H](O)c1ccc(O)cn1` [NIKKOMYCIN]: 6 µg/mL.

These data come from ChEMBL document CHEMBL1159142, “A convenient degradation of polyoxin D to uracil polyoxin C: access to key intermediates and synthesis of antifungal -aminoacyl derivatives of UPOC” (Bioorg Med Chem Lett, 1993).
